For data set [1], the target named is p53-MDM2 interaction (GST-MDM2 protein aa 23-117 / biotinylated p53 wt peptide) (Homo sapiens (Human), UniProt Q00987). Put plainly: MDM2-p53 Inhibition AlphaScreen. In kind it is biochemical. To be noted: 20 nM GST-MDM2 (aa 23-117), 20 nM biotinylated p53 wt peptide. An excerpt:
MDM2-p53 Inhibition AlphaScreen
For orientation: In Alpha technology, singlet oxygen from a donor bead excites a nearby acceptor bead.

Data set [2] has as its system human acute myeloid leukemia (AML) and human prostate tumor xenograft models harboring p53 wild-type. The following applies: Tovar et al. 2013; cited from earlier work.
Data set [3] relates to p53 wild-type vs. p53 mutant cell lines. The following applies: Carol et al. 2013; cited from earlier work.
Data set [4] relates to solid tumor xenograft models. To be noted: Carol et al. 2013; cited from earlier work.
Data set [5] deals with acute lymphoblastic leukemia (ALL) xenograft models with mixed-lineage leukemia (MLL) rearrangement. To be noted: Carol et al. 2013; cited from earlier work.

We go through 42 molecules from US10576064B2, “Spiro[3H-indole-3,2′-pyrrolidin]-2(1H)-one compounds and derivatives as MDM2-P53 inhibitors” (Boehringer Ingelheim International GmbH, priority 2014, dated 2020).

The IC50 is the concentration at which inhibition is half-maximal. A lower IC50 goes with inhibition by little substance. In the case of `O=C(O)c1ccc(N2C[C@@H]3[C@H](C2=O)[C@@H](c2cccc(Cl)c2F)[C@@]2(C(=O)Nc4cc(Cl)ccc42)N3CC2CCCCC2)cc1` [Compound I-235], it took 980 nM to reach half-maximal inhibition in data set [1] (IC50).

Molecule `O=C(O)c1ccc(N2C[C@@H]3[C@H](C2=O)[C@@H](c2cccc(Cl)c2F)[C@@]2(C(=O)Nc4cc(Cl)ccc42)N3CC2CCCC2)cc1` [Compound I-236] had an IC50 in data set [1] of 488 nM. This IC50 is about 2-fold lower than that of the molecule before.

On to `CCOc1cccc(CN2[C@H]3CN(c4ccc(C(=O)O)cc4)C(=O)[C@H]3[C@H](c3cccc(Cl)c3F)[C@]23C(=O)Nc2cc(Cl)ccc23)c1` [Compound I-237], for which 2 nM corresponded to half-maximal inhibition in data set [1] (IC50).

`CCOc1cccc(CN2[C@@H]3CN(c4ccc(C(=O)O)cc4)C(=O)[C@@H]3[C@@H](c3cccc(Cl)c3F)[C@@]23C(=O)Nc2cc(Cl)ccc23)c1` [Compound I-239]: in data set [1], 1160 nM corresponded to half-maximal inhibition (IC50).

In data set [1], `CCOc1cccc(CN2[C@H]3CN(c4ccc(C(=O)O)cc4)C(=O)[C@H]3[C@H](c3cccc(Cl)c3F)[C@]23C(=O)Nc2nc(Cl)ccc23)c1` [Compound I-240] had a 50% inhibitory concentration (IC50) of 4 nM.

`O=C(O)c1ccc(CN2C[C@H]3[C@@H](C2=O)[C@H](c2cccc(Cl)c2F)[C@]2(C(=O)Nc4cc(Cl)ccc42)N3CC2CC2)cc1` [Compound I-242]: the IC50 in data set [1] amounted to 37 nM.

Molecule `O=C(O)c1ccc(N2C[C@H]3[C@@H](C2=O)[C@H](c2ccnc(Cl)c2F)[C@]2(C(=O)Nc4cc(Cl)ccc42)N3CC2CC2)cc1` [Compound I-244] showed an IC50 in data set [1] of 4 nM.

The molecule `CCOc1cccc(CN2[C@H]3CN(Cc4ccc(C(=O)O)cc4)C(=O)[C@H]3[C@H](c3cccc(Cl)c3F)[C@]23C(=O)Nc2cc(Cl)ccc23)c1` [Compound I-246] gave an IC50 in data set [1] of 17 nM.

As to `CCOc1cccc(CN2[C@H]3CN(Cc4ccc(C(=O)O)cc4)C(=O)[C@H]3[C@H](c3cccc(Cl)c3F)[C@@]23C(=O)Nc2cc(Cl)ccc23)c1` [Compound I-248], in data set [1], the IC50 is 485 nM.

As for `COc1cc(N2C[C@H]3[C@@H](C2=O)[C@H](c2cccc(Br)c2F)[C@]2(C(=O)Nc4cc(Cl)ccc42)N3CC2CC2)ccc1C(=O)O` [Compound I-250], half-maximal inhibition in data set [1] (IC50) required 9 nM.

In data set [1], `O=C(O)c1ccc(N2C[C@H]3[C@@H](C2=O)[C@H](c2cccc(Br)c2F)[C@]2(C(=O)Nc4cc(Cl)ccc42)N3CC2CC2)cc1` [Compound I-252] yielded an IC50 of 9 nM.

With `O=C(O)c1ccc(N2C[C@H]3[C@@H](C2=O)[C@H](c2cccc(Br)c2F)[C@]2(C(=O)Nc4cc(Cl)ccc42)N3CC2CC2)cc1F` [Compound I-254], in data set [1], the half-maximal inhibitory concentration (IC50) was 9 nM.

For the molecule `O=C(O)c1ccc(N2C[C@H]3[C@@H](C2=O)[C@H](c2cccc(Cl)c2F)[C@]2(C(=O)Nc4cc(Cl)ccc42)N3CC2CC2)cc1C(F)(F)F` [Compound I-256], the IC50 in data set [1] stood at 27 nM.

In data set [1], `COc1cc(N2C[C@H]3[C@@H](C2=O)[C@H](c2cccc(Cl)c2F)[C@]2(C(=O)Nc4cc(Cl)ccc42)N3CC2CC2)ccc1C(=O)O` [Compound I-258] displayed a half-maximal inhibitory concentration (IC50) of 4 nM.

Turning to `O=C(O)c1ccc(N2C[C@H]3[C@@H](C2=O)[C@H](c2cccc(Cl)c2F)[C@]2(C(=O)Nc4cc(Cl)ccc42)N3CC2CC2)cc1OC(F)(F)F` [Compound I-259], the IC50 in data set [1] is 11 nM.

In data set [1], `Cc1cc(N2C[C@H]3[C@@H](C2=O)[C@H](c2cccc(Cl)c2F)[C@]2(C(=O)Nc4cc(Cl)ccc42)N3CC2CC2)ccc1C(=O)O` [Compound I-261] registered an IC50 of 5 nM. This IC50 is about 2.2-fold lower than that of the molecule before.

`O=C(CO)c1ccc(N2C[C@H]3[C@@H](C2=O)[C@H](c2cccc(Cl)c2F)[C@]2(C(=O)Nc4cc(Cl)ccc42)N3CC2CC2)cc1` [Compound I-262] gave an IC50 in data set [1] of 21 nM.

In data set [1], `O=C(O)c1ccc(N2CC[C@H]3[C@@H](C2=O)[C@H](c2cccc(Cl)c2F)[C@]2(C(=O)Nc4cc(Cl)ccc42)N3CC2CC2)c(O)c1` [Compound I-264] showed an IC50 of 49 nM.

In the case of `NC(=O)c1ccc(N2CC[C@H]3[C@@H](C2=O)[C@H](c2cccc(Cl)c2F)[C@]2(C(=O)Nc4cc(Cl)ccc42)N3CC2CC2)cc1` [Compound I-268], the IC50 in data set [1] is 26 nM.

As to `CNC(=O)c1ccc(N2CC[C@H]3[C@@H](C2=O)[C@H](c2cccc(Cl)c2F)[C@]2(C(=O)Nc4cc(Cl)ccc42)N3CC2CC2)cc1` [Compound I-270], the IC50 in data set [1] was determined as 27 nM.

The molecule `CN(C)C(=O)c1ccc(N2CC[C@H]3[C@@H](C2=O)[C@H](c2cccc(Cl)c2F)[C@]2(C(=O)Nc4cc(Cl)ccc42)N3CC2CC2)cc1` [Compound I-272] returned an IC50 in data set [1] of 25 nM.

With `O=C(NO)c1ccc(N2CC[C@H]3[C@@H](C2=O)[C@H](c2cccc(Cl)c2F)[C@]2(C(=O)Nc4cc(Cl)ccc42)N3CC2CC2)cc1` [Compound I-274], in data set [1], the IC50 amounted to 20 nM.

Take `CN(O)C(=O)c1ccc(N2CC[C@H]3[C@@H](C2=O)[C@H](c2cccc(Cl)c2F)[C@]2(C(=O)Nc4cc(Cl)ccc42)N3CC2CC2)cc1` [Compound I-276]: in data set [1], the concentration for half-maximal inhibition (IC50) was found to be 46 nM.

In data set [1], `CON(C)C(=O)c1ccc(N2CC[C@H]3[C@@H](C2=O)[C@H](c2cccc(Cl)c2F)[C@]2(C(=O)Nc4cc(Cl)ccc42)N3CC2CC2)cc1` [Compound I-278] gave an IC50 of 33 nM.

`NC(=O)c1ccc(N2C[C@H]3[C@@H](C2=O)[C@H](c2cccc(Cl)c2F)[C@]2(C(=O)Nc4cc(Cl)ccc42)N3CC2CC2)cc1` [Compound I-280] came in with an IC50 in data set [1] of 7 nM. Against the preceding molecule, the IC50 is about 4.7-fold lower.

Molecule `NC(=O)c1ccc(N2C[C@H]3[C@@H](C2=O)[C@H](c2cccc(Cl)c2F)[C@]2(C(=O)Nc4cc(Cl)ccc42)N3CC2CC2)cc1C(F)(F)F` [Compound I-281] had an IC50 in data set [1] of 67 nM.

Take `CCOc1cccc(CN2[C@H]3CN(c4ccc(C(=O)NO)cc4)C(=O)[C@H]3[C@H](c3cccc(Cl)c3F)[C@]23C(=O)Nc2cc(Cl)ccc23)c1` [Compound I-283]: the 50% inhibitory concentration (IC50) in data set [1] is 4 nM.

The molecule `CCOc1cccc(CN2[C@H]3CN(c4ccc(C(N)=O)cc4)C(=O)[C@H]3[C@H](c3cccc(Cl)c3F)[C@]23C(=O)Nc2cc(Cl)ccc23)c1` [Compound I-284] had an IC50 in data set [1] of 3 nM. The IC50 values of the last two molecules are within 1.5-fold of each other.

For the molecule `O=C(NO)c1ccc(N2C[C@H]3[C@@H](C2=O)[C@H](c2cccc(Cl)c2F)[C@]2(C(=O)Nc4cc(Cl)ccc42)N3CC2CC2)cc1` [Compound I-285], the IC50 in data set [1] was found to be 8 nM. This IC50 is about 2.7-fold higher than that of the molecule before.

In data set [1], `CN(C)C(=O)c1ccc(N2C[C@H]3[C@@H](C2=O)[C@H](c2cccc(Cl)c2F)[C@]2(C(=O)Nc4cc(Cl)ccc42)N3CC2CC2)cc1` [Compound I-286] registered an IC50 of 10 nM.

`CNC(=O)c1ccc(N2C[C@H]3[C@@H](C2=O)[C@H](c2cccc(Cl)c2F)[C@]2(C(=O)Nc4cc(Cl)ccc42)N3CC2CC2)cc1` [Compound I-287] showed an IC50 in data set [1] of 8 nM.

Molecule `NC(=O)c1ccc(N2C[C@H]3[C@@H](C2=O)[C@H](c2ccnc(Cl)c2F)[C@]2(C(=O)Nc4cc(Cl)ccc42)N3CC2CC2)cc1` [Compound I-288] came in with an IC50 in data set [1] of 8 nM. This lies in the single-digit nanomolar range.

Molecule `O=C(O)c1ccc(-c2cc(Cl)c(F)c([C@H]3[C@@H]4C(=O)NCC[C@@H]4N(CC4CC4)[C@@]34C(=O)Nc3cc(Cl)ccc34)c2)cc1` [Compound I-290] showed an IC50 in data set [1] of 36 nM.

`Nc1ccc(N2CC[C@H]3[C@@H](C2=O)[C@H](c2cccc(Cl)c2F)[C@]2(C(=O)Nc4cc(Cl)ccc42)N3CC2CC2)cc1` [Compound I-292]: the half-maximal inhibitory concentration (IC50) in data set [1] amounted to 164 nM.

With `CC(=O)Nc1ccc(N2CC[C@H]3[C@@H](C2=O)[C@H](c2cccc(Cl)c2F)[C@]2(C(=O)Nc4cc(Cl)ccc42)N3CC2CC2)cc1` [Compound I-296], it took 58 nM to reach half-maximal inhibition in data set [1] (IC50).

In turn, `O=CNc1ccc(N2CC[C@H]3[C@@H](C2=O)[C@H](c2cccc(Cl)c2F)[C@]2(C(=O)Nc4cc(Cl)ccc42)N3CC2CC2)cc1` [Compound I-298] came in with an IC50 in data set [1] of 86 nM.

On to `CS(=O)(=O)Nc1ccc(N2CC[C@H]3[C@@H](C2=O)[C@H](c2cccc(Cl)c2F)[C@]2(C(=O)Nc4cc(Cl)ccc42)N3CC2CC2)cc1` [Compound I-300], for which the IC50 in data set [1] was 98 nM.

In data set [1], `CS(=O)(=O)Nc1ccc(N2C[C@H]3[C@@H](C2=O)[C@H](c2cccc(Cl)c2F)[C@]2(C(=O)Nc4cc(Cl)ccc42)N3CC2CC2)cc1F` [Compound I-302] returned an IC50 of 37 nM. Compared with the last molecule, the IC50 is about 2.6-fold lower.

In data set [1], `CCOC(=O)CNc1ccc(N2CC[C@H]3[C@@H](C2=O)[C@H](c2cccc(Cl)c2F)[C@]2(C(=O)Nc4cc(Cl)ccc42)N3CC2CC2)cc1` [Compound I-304] showed an IC50 of 192 nM. Against the preceding molecule, the IC50 is about 5.2-fold higher.

`O=C(O)CNc1ccc(N2CC[C@H]3[C@@H](C2=O)[C@H](c2cccc(Cl)c2F)[C@]2(C(=O)Nc4cc(Cl)ccc42)N3CC2CC2)cc1` [Compound I-306] came in with a half-inhibitory concentration (IC50) in data set [1] of 67 nM.

As for `CCOc1cc(C(C)(C)C)ccc1C1=N[C@@](C)(c2ccc(Cl)cc2)[C@@](C)(c2ccc(Cl)cc2)N1C(=O)N1CCN(CCCS(C)(=O)=O)CC1` [RG7112], the “antiproliferative and proapoptotic activity” value in data set [2] was “antiproliferative and proapoptotic activity of RG7112 has been observed”.

For the molecule `CCOc1cc(C(C)(C)C)ccc1C1=N[C@@](C)(c2ccc(Cl)cc2)[C@@](C)(c2ccc(Cl)cc2)N1C(=O)N1CCN(CCCS(C)(=O)=O)CC1` [RG-7112], the “cytotoxic activity, median IC50” value in data set [3] is recorded as “lower median IC50 values for p53 wild-type vs. p53 mutant cell lines”. Besides, the tumor growth inhibition result in data set [4] is reported as “induced tumor growth inhibition”. Besides, the “efficacy in xenograft models” value in data set [5] is listed as “particularly efficacious”.
